Measured values as given in patent publication US20170081286A1, “2-[[[2-[(HYDROXYACETYL)AMINO]-4-PYRIDINYL]METHYL]THIO]-N-[4-(TRIFLUOROMETHOXY)PHENYL]-3-PYRIDINECARBOXAMIDE BENZENESULFONATE, CRYSTAL OF SAME, CRYSTAL POLYMORPH THEREOF, AND METHODS FOR PRODUCTION THEREOF” (Santen Pharmaceutical Co., Ltd., priority 2009, published 2017).

What was measured:
Crl:CD (SD) rat [1] = test: Rat 4-week repeated oral administration toxicity test of benzenesulfonate of compound A, stomach histopathology; type: in vivo; settings: once a day, 4 weeks, 30 mg/kg
Method: (§1) i) To Crl:CD (SD) rat was orally administered compound A ([…]) suspended in a 1% methylcellulose liquid once a day for 7 days. ii) After completion of the administration, the rat was exsanguinated to death under ether anesthesia, then the stomach was removed, fixed in a 10% neutral buffered formalin aqueous solution, and then stained with hematoxylin-eosin to prepare a specimen, and the change in the stomach was observed histopathologically. 2) Rat 4-week repeated oral administration toxicity test of benzenesulfonate of compound A
as §1, with “administered benzenesulfonate of” for “administered”, “4 weeks.” for “7 days.”, “histopathologically.” for “histopathologically. 2) Rat 4-week repeated oral administration toxicity test of benzenesulfonate of compound A”

[2] = Storage stability test of salts of compound A (1-week preliminary stability test, content by HPLC); type: physicochemical; settings: for decomposition / decrease in purity on storage (in words): 1-week preliminary stability test (severe test), light, humidity and other factors; for content of salt of compound A after storage, relative to the content before storage of 100%: HPLC
Method: For examining the storage stability for these salts with compound A, a 1-week preliminary stability test (severe test) was executed.
<Storage Stability Tests for Benzenesulfonate, Methanesulfonate and p-Toluenesulfonate of Compound A (1-Week Preliminary Stability Test)>
For benzenesulfonate, methanesulfonate and p-toluenesulfonate of compound A, after storing under the conditions of 40° C. 75% RH, 60° C. or light (1000 lux/hr), the content of each salt of compound A was measured by HPLC. The percentage of change, relative to the content before storage of 100%, was calculated.

[3] = test system: rat adjuvant arthritis model; settings: described in PTL 1; cited from earlier work
[4] = test system: VEGF-induced HUVEC proliferation; settings: described in PTL 1; cited from earlier work
[5] = test system: tumor-bearing mouse model; settings: described in PTL 1; cited from earlier work
[6] = test system: rat choroidal neovascularization model; settings: described in PTL 1; cited from earlier work
Crl:CD (SD) rat [7] = test: Rat 1-week repeated oral administration toxicity test of compound A (free body), stomach histopathology; type: in vivo; settings: once a day, 1 week (7 days), 30 mg/kg
Method: 1) Rat 1-week repeated oral administration toxicity test of compound A (free body)
as §1

O=C(CO)Nc1cc(CSc2ncccc2C(=O)Nc2ccc(OC(F)(F)F)cc2)ccn1.O=S(=O)(O)c1ccccc1 [benzenesulfonate of compound A, benzenesulfonate of 2-[[[2-[(hydroxyacetyl)amino]-4-pyridinyl]methyl]thio]-N-[4-(trifluoromethoxy)phenyl]-3-pyridinecarboxamide]
mineral deposition in the stomach (Crl:CD (SD) rat [1]): not observed
decomposition / decrease in purity on storage (in words) [2]: did not show a decrease in purity
content of salt of compound A after storage, relative to the content before storage of 100% ([2]; 40° C. 75% RH/1 week): 100.0%
content of salt of compound A after storage, relative to the content before storage of 100% ([2]; 60° C./1 week): 100.0%
content of salt of compound A after storage, relative to the content before storage of 100% ([2]; 1000 lux/hr, 1 week): 100.0%

O=C(CO)Nc1cc(CSc2ncccc2C(=O)Nc2ccc(OC(F)(F)F)cc2)ccn1 [compound A, 2-[[[2-[(hydroxyacetyl)amino]-4-pyridinyl]methyl]thio]-N-[4-(trifluoromethoxy)phenyl]-3-pyridinecarboxamide]
paw edema suppressing effect [3]: exhibits a paw edema suppressing effect
cell proliferation inhibiting effect [4]: exhibits a cell proliferation inhibiting effect
tumor proliferation suppressing effect [5]: exhibits a tumor proliferation suppressing effect
choroidal neovascularization inhibiting effect [6]: exhibits a choroidal neovascularization inhibiting effect
mineral deposition in the stomach (Crl:CD (SD) rat [7]): observed

CS(=O)(=O)O.O=C(CO)Nc1cc(CSc2ncccc2C(=O)Nc2ccc(OC(F)(F)F)cc2)ccn1 [methanesulfonate of compound A]
decomposition / decrease in purity on storage (in words) [2]: decomposed by light
content of salt of compound A after storage, relative to the content before storage of 100% ([2]; 40° C. 75% RH/1 week): 99.8%
content of salt of compound A after storage, relative to the content before storage of 100% ([2]; 60° C./1 week): 99.9%
content of salt of compound A after storage, relative to the content before storage of 100% ([2]; 1000 lux/hr, 1 week): 99.1%

p-toluenesulfonate
decomposition / decrease in purity on storage (in words) [2]: decomposed by humidity
content of salt of compound A after storage, relative to the content before storage of 100% ([2]; 40° C. 75% RH/1 week): 92.3%
content of salt of compound A after storage, relative to the content before storage of 100% ([2]; 60° C./1 week): 99.3%
content of salt of compound A after storage, relative to the content before storage of 100% ([2]; 1000 lux/hr, 1 week): 99.8%
